{"source": "patent US20240207444A1", "about": "“LIPID NANOPARTICLES CONTAINING POLYNUCLEOTIDES ENCODING PHENYLALANINE HYDROXYLASE AND USES THEREOF” (ModernaTX, Inc., priority 2021, published 2024)", "data": [{"experiment": "Residual parent lipid levels in the liver of mice", "type": "in vivo, CD-1 mice", "conditions": "calculation assumes a 25 g mouse with a 1.5 g liver, >95% equals very slow metabolism of the lipid", "experimental": "To assess potency of expression and metabolic stability of lipids of the disclosure, hepatocyte protein expression (hEPO) was measured following administration to mice of a nanoparticle of the disclosure.\nLipid nanoparticles including DSPC as a phospholipid, cholesterol as a structural lipid, Compound I as a PEG lipid, an ionizable amino lipid of Formula (II), and an mRNA encoding hEPO were intravenously administered to CD-1 mice. The concentration of hEPO in serum was tested at 6 hours after injection.", "values": [{"smiles": "CCCCCCCCC(CCCCCCCC)OC(=O)CCCCCCCN(CCO)CCCCCCCC(=O)OCCCC(CCCCC)CCCCC", "note": "[Compound 31]", "Approx. Percent Total Dose of Parent Lipid Remaining at 24 h": "<0.1%^"}, {"smiles": "CCCCCC(CCCCC)CCCOC(=O)CCCCCCCN(CCO)CCCCCCCC(=O)OCCCC(CCCCC)CCCCC", "note": "[Compound 33]", "Approx. Percent Total Dose of Parent Lipid Remaining at 24 h": "<0.1%^"}, {"smiles": "CCCCCCCCC(CCCCCCCC)OC(=O)CCCCCCCN(CCO)CCCCCCCC(=O)OCCC1CCC(CC)CC1", "note": "(stereo not shown) [Compound 35]", "Approx. Percent Total Dose of Parent Lipid Remaining at 24 h": "<0.1%^"}, {"smiles": "CCCCCCCCC(CCCCCCCC)OC(=O)CCCCCCCN(CCO)CCCCCCCC(=O)OCCC1CCC(CC)C1", "note": "(stereo not shown) [Compound 37]", "Approx. Percent Total Dose of Parent Lipid Remaining at 24 h": "<0.1%^"}, {"smiles": "CCCCCCC(CCCCCC)OC(=O)CCCCCCCN(CCCCCCCC(=O)OCCC(CCCC)CCCC)CCCNc1c(NC)c(=O)c1=O", "note": "[Compound 60]", "Approx. Percent Total Dose of Parent Lipid Remaining at 24 h": "9 ± 0.8% ^"}, {"smiles": "CCCCCC(CCCCC)OC(=O)CCCCCCCN(CCCCCCCC(=O)OCCC(CCCC)CCCC)CCCNc1c(NC)c(=O)c1=O", "note": "[Compound 61]", "Approx. Percent Total Dose of Parent Lipid Remaining at 24 h": "6 ± 0.3% ^"}, {"smiles": "CCCCC(CCCC)CCOC(=O)CCCCCCCN(CCCCCCCC(=O)OC(CCCC)CCCC)CCCNc1c(NC)c(=O)c1=O", "note": "[Compound 62]", "Approx. Percent Total Dose of Parent Lipid Remaining at 24 h": "2 ± 0.9% ^"}, {"smiles": "CCCCCCCC(CCCCCCC)OC(=O)CCCCCCCN(CCCCCCCC(=O)OCCC(CCC)CCC)CCCNc1c(NC)c(=O)c1=O", "note": "[Compound 63]", "Approx. Percent Total Dose of Parent Lipid Remaining at 24 h": "9 ± 3% ^"}, {"smiles": "CCCCCCC(CCCCCC)OC(=O)CCCCCCCN(CCCCCCCC(=O)OCCC(CCC)CCC)CCCNc1c(NC)c(=O)c1=O", "note": "[Compound 64]", "Approx. Percent Total Dose of Parent Lipid Remaining at 24 h": "6 ± 0.8% ^"}, {"smiles": "CCCCCC(CCCCC)OC(=O)CCCCCCCN(CCCCCCCC(=O)OCCC(CCC)CCC)CCCNc1c(NC)c(=O)c1=O", "note": "[Compound 65]", "Approx. Percent Total Dose of Parent Lipid Remaining at 24 h": "0.9 ± 0.06% ^"}]}]}
